Here are results for 1 substance from PMC12340957, “Interactions between Lipopolysaccharide and Peptide Bacteriocin BacSp222 Influence Their Biological Activities” (ACS Infectious Diseases, 2025).

Ends that are not written are not given here. * marks the point of attachment. For = O=C*

A short description of data set [1]: Dynamic light scattering, hydrodynamic radius. It is filed as physicochemical. The conditions noted are these: BacSp222 alone at 5, 50, 500 μg/mL, DLS, PBS, 37 °C. The protocol:
For dynamic light scattering experiments, (1) the solution of PBS without Ca^2+ and Mg^2+ or PBS without Ca^2+ and Mg^2+ with (2) 50 μg/mL LPS O55:B5 (IEC), (3) 50 μg/mL LPS O111:B4 (IEC), (4) BacSp222 at concentration 5, 50, and 500 μg/mL, or (5) 50 μg/mL LPS O55/B5 (IEC) + BacSp222 at concentration 5, 50, and 500 μg/mL were incubated for 15 min at 37 °C. Then, the hydrodynamic radius of the LPS and BacSp222 molecules, as well as LPS-BacSp222 complexes, was determined by dynamic light scattering (DLS) on the Prometheus Panta apparatus (NanoTemper, Munich, Germany). Prometheus Standard Capillaries (NanoTemper, Munich, Germany) were used in the experiments, and the measurements were taken at 37 °C. The results were processed by the instrument software (Prometheus Panta Software).

Data set [2] relates to hemolymph phenoloxidase. As to the kind of experiment: Hemolymph phenoloxidase (PO) activation in larvae. It is filed as in vivo, greater wax moth. The conditions noted are these: for PO activity after BacSp222 alone: 5 μL injection. The protocol: The experiments were based on a previously published protocol. The greater wax moth was reared in the dark on honeybee nest debris at 28 °C and 70% humidity. Last instar larvae were used for the experiments. To test the activation of the phenoloxidase (PO) system by LPS, larvae were divided into groups of 10 insects. One group was injected with PBS buffer without Ca^2+ and Mg^2+, the other one with 1 μg of LPS O55:B5 (IEC) diluted in PBS, and the next one with the mixture of 1 μg of LPS and BacSp222 at concentrations 3, 6, or 30 μM. The last group was treated with the bacteriocin alone at the same concentrations. Before injection, all prepared solutions were preincubated for 30 min at 30 °C for possible complex formation, while the puncture surface of each larva was disinfected with 70% ethanol. Injection was done in the last but one proleg by a Hamilton syringe at a volume of 5 μL. After injection, the larvae were placed in Petri dishes on sterile filter paper. Bleeding larvae were excluded from the experiment. […]
The assay was performed similarly to the previous papers. , The hemolymph was diluted 5 times in apyrogenic water, and 2 μL of this dilution was added to 18 μL of buffer A (50 mM Tris–HCl pH 7.4, 150 mM NaCl, 5 mM CaCl2) in a 96-well plate. After 20 min of preincubation at room temperature, 180 μL of a 2 mM solution of 3,4-dihydroxy- L -phenylalanine (L-DOPA) in buffer B (50 mM Na2HPO4, 50 mM NaH2PO4; pH 6.5) was added, and then, the absorbance at 490 nm was measured immediately (time 0) at the indicated time-points. […]
All experiments were conducted three times independently, except for the DLS and ITC measurements, which were performed once and twice, respectively. […] For experiments concerning measurements of TNF, NO, cellular metabolic activity, TLRs activation, and LAL assay, the statistical significance of differences between the particular result and control was calculated using a two-way ANOVA with Tukey’s multiple comparison test as a posthoc test and shown in figures as asterisks *, **, or ***, indicating p < 0.05, p < 0.01, and p < 0.001, respectively. […]

In data set [3] the test system is Gram-positive bacteria. The conditions noted are these: pore formation; ref number not given; cited from earlier work. From the text:
(§1) A good example of such a multifunctional and immunomodulatory bacteriocin is the peptide BacSp222, produced by an opportunistic canine pathogen, strain 222. BacSp222 is a 50 amino acid long linear peptide encoded on a plasmid and is produced without a leader sequence, retaining a formylated N-terminal methionine. Its amino acid sequence seems to be unique, but the general physicochemical properties of BacSp222 resemble features of a group of several previously described bacteriocins of, predominantly, different staphylococci: lacticins Q and Z, aureocins A53 and AurK411, capidermicin, and epid ...

In data set [4] the test system is mouse immune cells. The conditions noted are these: in the presence of IFN-gamma; ref number not given; cited from earlier work.
Excerpt: as §1

Data set [5] concerns pro-inflammatory cytokines. The conditions noted are these: TNF, MCP-1, IL-1-alpha, IL-8; via TLR2/TLR6, MyD88, NF-κB; ref our recent studies; cited from earlier work.
Excerpt: as §1

The subject of data set [6] is ATCC 25923, ATCC 29663, ATCC 6633, and ATCC 4698. As to the kind of experiment: Residual bactericidal activity, radial diffusion assay. The format is cell-based. The conditions noted are these: 10 or 50 μM BacSp222, 16 h, n = 3. The protocol: The residual bactericidal activity of BacSp222 after preincubation with different LPS serotypes and at different mass proportions was determined using radial diffusion assay toward the following bacteria: ATCC 25923, ATCC 29663, ATCC 6633, and ATCC 4698. BacSp222 at final concentrations of 10 μM (for and ) or 50 μM (for and ) was preincubated in PBS without Ca^2+ and Mg^2+ for 15 min at 37 °C with LPS O55:B5 (IEC) or O111:B4 (PE and IEC) at proportions equivalent to 1:1 or 1:17 mass ratios (BacSp222:LPS). After preincubation, 5 μL aliquots of the solutions were dispensed as drops at different sites of soft Mueller–Hinton Broth II (MHBII, Merck, Darmstadt, Germany) plates containing 0.75% (w/v) agarose and a suspension of the tested bacteria strains. After liquid preparations were entered into the solid medium, the plates were incubated at 37 °C for 16 h, and the antibacterial activity of the studied samples was determined as the diameter of the bacterial growth inhibition zone. In each experiment, the appropriate controls were applied on the plate, and they comprised adequate amounts of BacSp222 and LPS not incubated together.

Data set [7] relates to human neutrophils. The arrangement: method as in number not given. The conditions noted are these: ref number not given; cited from earlier work.

For “For-MAGLLRFLLSKGRALYNWAKSHVGKVWEWLKSGATYEQIKEWIENALGWR [BacSp222]”, the oligomerization in solution entry in data set [1] was “has a tendency to oligomerize in solutions”. Besides, the “PO activity after BacSp222 alone” value in data set [2] (3 μM BacSp222 alone (printed "bacteriocin alone")) is reported as “PO activity at a similar level as the injection of PBS buffer”; in data set [2] (6 μM BacSp222 alone), “induced PO activity”. Besides, the “inhibition of LPS-induced PO activation” value in data set [2] (3 μM BacSp222 preincubated (30 min, 30 °C) and coinjected with 1 μg LPS O55:B5 (IEC), n = 3, printed "inhibited ... to about 50%") is reported as “about 50%”. Also, in data set [3], the “bactericidal activity, Gram-positive bacteria” value is “kills a wide range of Gram-positive bacteria”. In addition, the “induction of NO secretion” value in data set [4] was “capable of stimulating mouse immune cells to express an inducible nitric oxide synthase and, consequently, to secrete nitric oxide (NO)”. Further, in data set [5], the “induction of pro-inflammatory cytokines” value is given as “induces the synthesis of many pro-inflammatory cytokines”. Also, the “effect of LPS on bactericidal potential of BacSp222” value in data set [6] (17-fold mass excess of LPS (1:17), all strains but one exception) is reported as “completely inhibited the killing potential of BacSp222”; in data set [6] (BacSp222:LPS 1:1 mass ratio, all LPS preparations, all four strains, preincubated 15 min 37 °C, peptide referred to as "bacteriocin"/"the peptide") it was “only marginally reduces the bactericidal potential of the peptide”. Also, the “activation of human neutrophils (ROS, NETs)” value in data set [7] was “cannot activate human neutrophils to produce reactive oxygen species (ROS) and induce the production of extracellular neutrophil traps (NETs)”.
